Consider ten compounds from the supplement of paper PMC8960247.

Where a name gives a salt, the structure may show the parent alone. ± gives the standard error.

One assay relates to 621-102 (TSC2-deficient). Nature of the assay: relative viability vs DMSO; higher = less cytotoxic. Particulars: serum: 10% FBS, 72 h.
For a further assay, the system named is 621-103 (TSC2-rescued). The assay is described as above. The following applies: serum: 10% FBS, 72 h.
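Also: immortalized renal angiomyolipoma cells stably carrying empty vector or TSC2, dosed in 384-well plates in DMEM, viability normalized to vehicle-treated wells within each plate.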

In the case of `COc1cc(Nc2ncc(F)c(Nc3ccc4c(n3)NC(=O)C(C)(C)O4)n2)cc(OC)c1OC` [R406], the relative viability with 621-102 (TSC2-deficient) (0.0001 µM) is 117 ± 2%; in the assay on 621-102 (TSC2-deficient) (0.001 µM), 110 ± 2.2%; with 621-102 (TSC2-deficient) (0.01 µM) it was 111 ± 1.2%; in the assay with 621-102 (TSC2-deficient) (0.1 µM), 109 ± 0.81%; in the assay on 621-102 (TSC2-deficient) (1 µM), 100.2 ± 0.76%; with 621-102 (TSC2-deficient) (10 µM), 117.2 ± 1.1%. The relative viability in the assay with 621-103 (TSC2-rescued) (0.0001 µM) came out at 101 ± 1.9%; with 621-103 (TSC2-rescued) (0.001 µM), 100 ± 1.5%; in the assay on 621-103 (TSC2-rescued) (0.01 µM), 98.7 ± 1.4%; in the assay on 621-103 (TSC2-rescued) (0.1 µM) it was 99.27 ± 0.46%; in the assay on 621-103 (TSC2-rescued) (1 µM) it was 99.6 ± 1.3%; in the assay with 621-103 (TSC2-rescued) (10 µM), 89.7 ± 2.5%.
Consider `COc1cc(Nc2ncc(F)c(Nc3ccc4c(n3)NC(=O)C(C)(C)O4)n2)cc(OC)c1OC` [R406 (free base)], for which the relative viability worked out at 114.2 ± 0.84% in the assay with 621-102 (TSC2-deficient) (0.0001 µM); 110 ± 2.3% in the assay on 621-102 (TSC2-deficient) (0.001 µM); 105 ± 1.1% with 621-102 (TSC2-deficient) (0.01 µM); 105 ± 1.2% with 621-102 (TSC2-deficient) (0.1 µM); 105.4 ± 0.42% in the assay on 621-102 (TSC2-deficient) (1 µM); 101 ± 2.1% in the assay with 621-102 (TSC2-deficient) (10 µM). The relative viability with 621-103 (TSC2-rescued) (0.0001 µM) was 99.45 ± 0.77%; in the assay on 621-103 (TSC2-rescued) (0.001 µM), 98.41 ± 0.3%; in the assay with 621-103 (TSC2-rescued) (0.01 µM), 101.7 ± 0.23%; in the assay on 621-103 (TSC2-rescued) (0.1 µM), 99.5 ± 1.3%; in the assay with 621-103 (TSC2-rescued) (1 µM) it was 98.1 ± 0.7%; in the assay on 621-103 (TSC2-rescued) (10 µM) it was 70.26 ± 0.23%.
`C[C@]12C=CC(=O)N[C@@H]1CC[C@@H]1[C@@H]2CC[C@]2(C)[C@@H](C(=O)Nc3cc(C(F)(F)F)ccc3C(F)(F)F)CC[C@@H]12` [Dutasteride (Avodart)]: the relative viability turned out to be 118 ± 1.5% with 621-102 (TSC2-deficient) (0.0001 µM); 116 ± 1.9% with 621-102 (TSC2-deficient) (0.001 µM); 115 ± 2.4% in the assay on 621-102 (TSC2-deficient) (0.01 µM); 96.4 ± 1.7% in the assay with 621-102 (TSC2-deficient) (0.1 µM); 107.7 ± 0.56% in the assay with 621-102 (TSC2-deficient) (1 µM); 98.5 ± 2.3% in the assay with 621-102 (TSC2-deficient) (10 µM). The relative viability with 621-103 (TSC2-rescued) (0.0001 µM) turned out to be 104 ± 1.4%; with 621-103 (TSC2-rescued) (0.001 µM), 105 ± 2.2%; with 621-103 (TSC2-rescued) (0.01 µM), 100.7 ± 0.37%; with 621-103 (TSC2-rescued) (0.1 µM) it was 101 ± 1.4%; in the assay with 621-103 (TSC2-rescued) (1 µM), 101 ± 1.5%; in the assay with 621-103 (TSC2-rescued) (10 µM), 94.61 ± 0.46%.
Regarding `CC(C)[C@H](O)C(=O)N[C@@H](C)C(=O)N[C@@H]1C(=O)N(C)CCc2ccccc21` [Semagacestat], the relative viability in the assay on 621-102 (TSC2-deficient) (0.0001 µM) worked out at 117 ± 2.5%; in the assay with 621-102 (TSC2-deficient) (0.001 µM) it was 118 ± 4.2%; in the assay on 621-102 (TSC2-deficient) (0.01 µM) it was 121.4 ± 0.8%; in the assay with 621-102 (TSC2-deficient) (0.1 µM), 117 ± 2%; in the assay on 621-102 (TSC2-deficient) (1 µM) it was 118 ± 1.6%; with 621-102 (TSC2-deficient) (10 µM), 116 ± 2.2%. Also, the relative viability came to 102 ± 2.3% in the assay on 621-103 (TSC2-rescued) (0.0001 µM); 98.71 ± 0.85% in the assay on 621-103 (TSC2-rescued) (0.001 µM); 101 ± 1.2% with 621-103 (TSC2-rescued) (0.01 µM); 102.5 ± 0.4% in the assay on 621-103 (TSC2-rescued) (0.1 µM); 102 ± 1.2% in the assay with 621-103 (TSC2-rescued) (1 µM); 103 ± 1.7% with 621-103 (TSC2-rescued) (10 µM).
Take `COC(=O)[C@@H]1[C@H]2C[C@H]3c4[nH]c5ccccc5c4CCN3C[C@@H]2CC[C@@H]1O` [Yohimbine HCl]: the relative viability came to 106 ± 2.6% in the assay on 621-102 (TSC2-deficient) (0.0001 µM); 104 ± 1.2% with 621-102 (TSC2-deficient) (0.001 µM); 104 ± 2.2% in the assay with 621-102 (TSC2-deficient) (0.01 µM); 100.9 ± 0.15% with 621-102 (TSC2-deficient) (0.1 µM); 100 ± 5.2% in the assay on 621-102 (TSC2-deficient) (1 µM); 100 ± 2.6% in the assay with 621-102 (TSC2-deficient) (10 µM). The relative viability in the assay on 621-103 (TSC2-rescued) (0.0001 µM) turned out to be 104 ± 3.8%; in the assay on 621-103 (TSC2-rescued) (0.001 µM), 105 ± 3.1%; with 621-103 (TSC2-rescued) (0.01 µM), 105 ± 3.5%; with 621-103 (TSC2-rescued) (0.1 µM), 97 ± 3%; in the assay on 621-103 (TSC2-rescued) (1 µM), 99.4 ± 4.7%; in the assay on 621-103 (TSC2-rescued) (10 µM), 96.5 ± 3.8%.
For `NC(=O)c1cccc(-c2cccc(OC(=O)NC3CCCCC3)c2)c1` [URB597], the relative viability with 621-102 (TSC2-deficient) (0.0001 µM) came out at 104.9 ± 0.41%; in the assay with 621-102 (TSC2-deficient) (0.001 µM), 107 ± 7%; in the assay on 621-102 (TSC2-deficient) (0.01 µM), 109.5 ± 0.46%; in the assay on 621-102 (TSC2-deficient) (0.1 µM), 98.4 ± 2.9%; in the assay on 621-102 (TSC2-deficient) (1 µM) it was 99.6 ± 4.4%; in the assay with 621-102 (TSC2-deficient) (10 µM), 92.7 ± 5.8%. The relative viability stood at 103 ± 3.1% with 621-103 (TSC2-rescued) (0.0001 µM); 106 ± 3.3% with 621-103 (TSC2-rescued) (0.001 µM); 103 ± 1.4% in the assay with 621-103 (TSC2-rescued) (0.01 µM); 106 ± 2.8% in the assay with 621-103 (TSC2-rescued) (0.1 µM); 104 ± 4% in the assay with 621-103 (TSC2-rescued) (1 µM); 112.8 ± 0.77% in the assay with 621-103 (TSC2-rescued) (10 µM).
As for `CC(C)[C@H](C(=O)Nc1ccc(C(=O)NO)cc1)c1ccccc1` [AR-42 (HDAC-42)], the relative viability in the assay on 621-102 (TSC2-deficient) (0.0001 µM) turned out to be 94.68 ± 0.44%; in the assay on 621-102 (TSC2-deficient) (0.001 µM) it was 109 ± 2.2%; in the assay on 621-102 (TSC2-deficient) (0.01 µM), 90.8 ± 3.5%; in the assay with 621-102 (TSC2-deficient) (0.1 µM), 82.4 ± 0.9%; with 621-102 (TSC2-deficient) (1 µM), 61.7 ± 2.2%; with 621-102 (TSC2-deficient) (10 µM), 41 ± 1.6%. Besides, the relative viability in the assay on 621-103 (TSC2-rescued) (0.0001 µM) was 109 ± 2%; in the assay with 621-103 (TSC2-rescued) (0.001 µM) it was 98.16 ± 0.28%; in the assay with 621-103 (TSC2-rescued) (0.01 µM), 102 ± 6.3%; in the assay on 621-103 (TSC2-rescued) (0.1 µM) it was 83.4 ± 3.6%; in the assay on 621-103 (TSC2-rescued) (1 µM) it was 41.07 ± 0.079%; in the assay with 621-103 (TSC2-rescued) (10 µM), 3.41 ± 0.081%.
On to `Cc1ccc(CN2CCNCC2)cc1NC(=O)CNc1ccc(F)c(F)c1`, for which the relative viability amounted to 112 ± 2.2% in the assay on 621-102 (TSC2-deficient) (0.0001 µM); 98.3 ± 5.5% in the assay on 621-102 (TSC2-deficient) (0.001 µM); 100.6 ± 0.38% in the assay with 621-102 (TSC2-deficient) (0.01 µM); 104 ± 3.2% with 621-102 (TSC2-deficient) (0.1 µM); 88 ± 1.4% in the assay on 621-102 (TSC2-deficient) (1 µM); 92.96 ± 0.19% in the assay with 621-102 (TSC2-deficient) (10 µM). The relative viability worked out at 113 ± 3.6% with 621-103 (TSC2-rescued) (0.0001 µM); 98.9 ± 2% in the assay with 621-103 (TSC2-rescued) (0.001 µM); 108 ± 3.7% with 621-103 (TSC2-rescued) (0.01 µM); 102 ± 2.5% in the assay with 621-103 (TSC2-rescued) (0.1 µM); 95.4 ± 2.7% in the assay with 621-103 (TSC2-rescued) (1 µM); 90.85 ± 0.73% with 621-103 (TSC2-rescued) (10 µM).
Regarding `O=C(O)CC[C@H]1CC[C@@](c2cc(F)ccc2F)(S(=O)(=O)c2ccc(Cl)cc2)CC1` [MK-0752], the relative viability in the assay on 621-102 (TSC2-deficient) (0.0001 µM) is 108 ± 3.6%; with 621-102 (TSC2-deficient) (0.001 µM) it was 104 ± 3.3%; in the assay with 621-102 (TSC2-deficient) (0.01 µM), 102 ± 3.8%; with 621-102 (TSC2-deficient) (0.1 µM), 98.1 ± 2.5%; in the assay on 621-102 (TSC2-deficient) (1 µM) it was 101.6 ± 0.5%; in the assay with 621-102 (TSC2-deficient) (10 µM), 97 ± 5%. The relative viability was 115 ± 4.2% in the assay with 621-103 (TSC2-rescued) (0.0001 µM); 108 ± 0.7% with 621-103 (TSC2-rescued) (0.001 µM); 107 ± 1.9% in the assay on 621-103 (TSC2-rescued) (0.01 µM); 111.21 ± 0.076% with 621-103 (TSC2-rescued) (0.1 µM); 106 ± 5.4% in the assay on 621-103 (TSC2-rescued) (1 µM); 111 ± 1.3% in the assay on 621-103 (TSC2-rescued) (10 µM).
For `Nc1ccn([C@@H]2O[C@H](CO)[C@@H](O)[C@@H]2O)c(=O)n1` [Cytarabine (Cytosar-U)], the relative viability in the assay on 621-102 (TSC2-deficient) (0.0001 µM) amounted to 88.2 ± 4%; in the assay on 621-102 (TSC2-deficient) (0.001 µM), 93.49 ± 0.71%; in the assay with 621-102 (TSC2-deficient) (0.01 µM), 96.2 ± 2.2%; in the assay on 621-102 (TSC2-deficient) (0.1 µM), 89.35 ± 0.62%; in the assay with 621-102 (TSC2-deficient) (1 µM), 74.5 ± 2.8%; in the assay with 621-102 (TSC2-deficient) (10 µM), 49.4 ± 1.1%. Also, the relative viability is 115 ± 4.8% in the assay with 621-103 (TSC2-rescued) (0.0001 µM); 106 ± 4.1% in the assay on 621-103 (TSC2-rescued) (0.001 µM); 110 ± 0.82% in the assay on 621-103 (TSC2-rescued) (0.01 µM); 105.2 ± 0.25% with 621-103 (TSC2-rescued) (0.1 µM); 88.313 ± 0.062% in the assay with 621-103 (TSC2-rescued) (1 µM); 38 ± 0.93% with 621-103 (TSC2-rescued) (10 µM).
